Experimental findings from PubChem BioAssay (NCI) are described below.

Test systems include A549 NSCLC; HCT-116 colon; HOP-62 NSCLC; RXF 393 renal; SF-295 CNS; SK-OV-3 ovarian; SNB-75 CNS; UACC-62 melanoma.
Holding throughout (experiment): NCI-60 cell line screen, 48 h

Several values for one entry are separate records, joined by “and”; a condition that tells them apart may be missing. Equal values may be shown once.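 Following 48 hours of exposure in 96-well plates, responses at five concentrations were used to interpolate endpoints linearly. GI50 marks 50% less growth. At the TGI there is no net growth.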

Regarding `COc1cc(/C=N\O[Si](C)(C)C(C)(C)C)ccc1O[Si](C)(C)C(C)(C)C`, the TGI in the experiment on A549 NSCLC, in the experiment on HCT-116 colon, with HOP-62 NSCLC, in the experiment with RXF 393 renal, in the experiment on SF-295 CNS and with SK-OV-3 ovarian was more than 100 µM throughout. The TGI with SNB-75 CNS and in the experiment on UACC-62 melanoma was more than 100 µM throughout.
Take `NC(CCc1ncc(C(=O)O)s1)C(=O)O` (centres undefined): the TGI with A549 NSCLC, with HCT-116 colon, in the experiment on RXF 393 renal, in the experiment with SF-295 CNS, in the experiment on SK-OV-3 ovarian and with SNB-75 CNS was more than 100 µM each time. The TGI in the experiment with UACC-62 melanoma is more than 100 µM.
Turning to `CC1CCC(C(C)(C)c2ccccc2)C(=O)C1` (centres undefined), the TGI in the experiment on A549 NSCLC, in the experiment with HCT-116 colon, in the experiment with HOP-62 NSCLC, in the experiment with SF-295 CNS, in the experiment on SK-OV-3 ovarian and in the experiment with SNB-75 CNS was more than 100 µM in each case. The TGI with UACC-62 melanoma was more than 100 µM.
On to `CCOc1ccc(N=Cc2c3ccccc3nc3ccccc23)cc1`, for which the TGI in the experiment with A549 NSCLC, in the experiment with HOP-62 NSCLC, in the experiment on RXF 393 renal, in the experiment with SF-295 CNS, in the experiment on SK-OV-3 ovarian and in the experiment with SNB-75 CNS was more than 100 µM each time. The compound also registered a TGI in the experiment on UACC-62 melanoma of more than 100 µM.
With `CC12CCC(=O)N1c1cccnc1N2` (centres undefined), the TGI in the experiment on A549 NSCLC, with HOP-62 NSCLC, with RXF 393 renal, in the experiment with SF-295 CNS, in the experiment on SK-OV-3 ovarian and in the experiment with SNB-75 CNS was more than 100 µM in each case. In addition, the TGI in the experiment with UACC-62 melanoma is more than 100 µM.
Consider `C[Si](C)(C)CN1C(=O)c2ccccc2C1(O)c1ccccc1` (centres undefined), for which the TGI with A549 NSCLC, in the experiment on HCT-116 colon, in the experiment with HOP-62 NSCLC, in the experiment on RXF 393 renal, with SF-295 CNS and in the experiment on SNB-75 CNS was more than 100 µM in each case. For the same compound, the TGI with UACC-62 melanoma was more than 100 µM.
As for `NCCN.O=C([O-])[O-].O=C([O-])[O-].[Co+3].[K+]`, the GI50 in the experiment with A549 NSCLC was more than 100 µM; in the experiment on HCT-116 colon, more than 100 µM; in the experiment with HOP-62 NSCLC it was more than 100 µM; in the experiment on SF-295 CNS, more than 100 µM; in the experiment on SK-OV-3 ovarian it was more than 100 µM; in the experiment on SNB-75 CNS, > 100 µM and 72.3 µM. For the same compound, in the experiment with UACC-62 melanoma, the GI50 is more than 100 µM. In addition, the TGI in the experiment with A549 NSCLC, in the experiment on HCT-116 colon, in the experiment with HOP-62 NSCLC, with SF-295 CNS, with SK-OV-3 ovarian and in the experiment on SNB-75 CNS was more than 100 µM throughout. Besides, the TGI in the experiment with UACC-62 melanoma is more than 100 µM.
For the compound `CC(=O)[CH-]C(=O)c1ccccc1.CC(=O)[CH-]C(=O)c1ccccc1.O=S(=O)([O-])c1cc([O-])c2c([O-])cc(S(=O)(=O)[O-])cc2c1.[Na+].[Ti+4]`, the GI50 is more than 100 µM in the experiment on A549 NSCLC; more than 100 µM with HCT-116 colon; more than 100 µM in the experiment on HOP-62 NSCLC; 55.7 µM in the experiment with SF-295 CNS; more than 100 µM in the experiment on SK-OV-3 ovarian; 29.1 µM in the experiment on SNB-75 CNS. Besides, the GI50 with UACC-62 melanoma is more than 100 µM. The TGI in the experiment with A549 NSCLC was more than 100 µM; in the experiment on HCT-116 colon it was more than 100 µM; in the experiment with HOP-62 NSCLC, more than 100 µM; with SF-295 CNS, more than 100 µM; in the experiment with SK-OV-3 ovarian, more than 100 µM; in the experiment with SNB-75 CNS it was 87.5 µM. Moreover, the TGI with UACC-62 melanoma is more than 100 µM.
As to `O=C1c2ccccc2C(=O)N1C/C=N/NS(=O)(=O)c1ccc(Br)cc1`, the TGI with A549 NSCLC, with HCT-116 colon, in the experiment on HOP-62 NSCLC, in the experiment on SF-295 CNS, in the experiment with SK-OV-3 ovarian and with SNB-75 CNS was more than 100 µM throughout. The compound also came in with a TGI in the experiment on UACC-62 melanoma of more than 100 µM.
For `CSc1ccc2c(cc1=O)[C@@H](NC(=O)c1cc(O)c(O)c(O)c1)CCc1cc(O)c(O)c(O)c1-2`, the TGI with A549 NSCLC was 92 µM; in the experiment on HCT-116 colon, 29.4 µM; in the experiment with HOP-62 NSCLC, more than 100 µM; in the experiment with SF-295 CNS, 43.6 µM; with SK-OV-3 ovarian, more than 100 µM; with SNB-75 CNS it was 53.7 µM. The TGI with UACC-62 melanoma stood at 36.8 µM.
On to `Cc1ccc2c(c1-c1ccccc1)C(=O)OC2`, for which the TGI in the experiment with A549 NSCLC, in the experiment with HCT-116 colon, in the experiment with HOP-62 NSCLC, in the experiment on RXF 393 renal, in the experiment with SK-OV-3 ovarian and in the experiment on SNB-75 CNS was more than 100 µM throughout. The TGI in the experiment with UACC-62 melanoma stood at 92.8 µM.
Turning to `CCc1cccc(C)c1NC(=O)CC1C(=O)Nc2ccccc2S1=O` (centres undefined), the TGI is more than 100 µM in the experiment with A549 NSCLC; more than 100 µM in the experiment with HCT-116 colon; more than 100 µM with HOP-62 NSCLC; 97.6 µM in the experiment with SF-295 CNS; more than 100 µM in the experiment on SNB-75 CNS.
Regarding `Cc1ccc(C)c(N2C(=O)C(=O)C(c3nc4ccccc4o3)/C(=N\NC(=O)c3ccccc3O)C2=O)c1` (centres undefined), the TGI in the experiment on A549 NSCLC was more than 100 µM; in the experiment with HCT-116 colon, 63.6 µM; in the experiment on HOP-62 NSCLC it was more than 100 µM; in the experiment on SF-295 CNS, more than 100 µM; with SK-OV-3 ovarian it was more than 100 µM; with SNB-75 CNS it was more than 100 µM. The compound also had a TGI in the experiment with UACC-62 melanoma of 84.4 µM.
